Each molecule was assayed on MV4:11 human cancer cell lines (assay: Cellular viability / anti-proliferative activity, CellTiter-Glo, 5 day protocol). Conditions: Homo sapiens, MV4-11, 120 h, MV4:11 cells; 5 day incubation; CellTiter-Glo; mean of minimum two replicates; read-out: GI50 on cellular proliferation of MV4:11 human cancer cell lines.
Type: cell-based
Outline: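 Compounds were tested over 22 two-fold dilutions starting at 30 μM in 0.3% DMSO, with 200 cells per well (7200 cells/mL). Viability was measured by CellTiter-Glo luminescence at day 5.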
`Cc1ccnc([C@H](C2CC2)N2CCc3c(cc(Cn4cnn(C)c4=N)cc3-c3ccc(F)cc3C)C2=O)c1` [Example 126, (S)-2-(Cyclopropyl(4-methylpyridin-2-yl)methyl)-5-(4-fluoro-2-methylphenyl)-7-((5-imino-1-methyl-1,5-dihydro-4H-1,2,4-triazol-4-yl)methyl)-3,4-dihydroisoquinolin-1(2H)-one] gave a GI50 of less than 50 nM.
Work on `COc1ccnc(CN2CCc3c(cc(CN4CCN(C5CC5)C4=N)cc3-c3cn(C)nc3C(F)(F)F)C2=O)c1` [Example 44, 7-((3-Cyclopropyl-2-iminoimidazolidin-1-yl)methyl)-2-((4-methoxypyridin-2-yl)methyl)-5-(1-methyl-3-(trifluoromethyl)-1H-pyrazol-4-yl)-3,4-dihydroisoquinolin-1(2H)-one] yielded a GI50 of less than 50 nM.
In the case of `CCn1cc(-c2cc(Cn3ccn(C)c3=N)cc3c2CCN(Cc2cc(C)nn2C)C3=O)c(C(F)(F)F)n1` [Example 74], the GI50 is reported as greater than 938 nM.
With `CCn1cc(-c2cc(CN3Cc4ccccc4C3=N)cc3c2CCN(Cc2cc(OC)ccn2)C3=O)c(C(F)(F)F)n1` [Example 115, 5-(1-Ethyl-3-(trifluoromethyl)-1H-pyrazol-4-yl)-7-((1-iminoisoindolin-2-yl)methyl)-2-((4-methoxypyridin-2-yl)methyl)-3,4-dihydroisoquinolin-1(2H)-one] the GI50 was greater than 938 nM.
With `CCn1cc(-c2cc(Cn3ccsc3=N)cc3c2CCN([C@@H](C)c2cc(OC)ccn2)C3=O)c(C(F)(F)F)n1` [Example 104, (S)-5-(1-Ethyl-3-(trifluoromethyl)-1H-pyrazol-4-yl)-7-((2-iminothiazol-3(2H)-yl)methyl)-2-(1-(4-methoxypyridin-2-yl)ethyl)-3,4-dihydroisoquinolin-1(2H)-one] the GI50 was less than 50 nM.
Work on `CCn1cc(-c2cc(CN3CCCC3=N)cc3c2CCN(Cc2cc(OC)ccn2)C3=O)cn1` [Example 111, 5-(1-Ethyl-1H-pyrazol-4-yl)-7-((2-iminopyrrolidin-1-yl)methyl)-2-((4-methoxypyridin-2-yl)methyl)-3,4-dihydroisoquinolin-1(2H)-one] yielded a GI50 greater than 938 nM.
In the case of `Cc1ccnc([C@@H](C2CC2)N2CCc3c(cc(Cn4ccn(C)c4=N)cc3-c3ccc(F)cc3C)C2=O)c1` [Example 33, (R)-2-(Cyclopropyl(4-methylpyridin-2-yl)methyl)-5-(4-fluoro-2-methylphenyl)-7-((2-imino-3-methyl-2,3-dihydro-1H-imidazol-1-yl)methyl)-3,4-dihydroisoquinolin-1(2H)-one], the GI50 is reported as 553 nM.
For `COc1ccnc([C@H](C)N2CCc3c(cc(Cn4ccnc4C)cc3-c3cnccc3C)C2=O)c1` [Example 196, (S)-2-(1-(4-Methoxypyridin-2-yl)ethyl)-7-((2-methyl-1H-imidazol-1-yl)methyl)-5-(4-methylpyridin-3-yl)-3,4-dihydroisoquinolin-1(2H)-one], the GI50 was 936 nM.
For `Cc1nccn1Cc1cc2c(c(-c3cn(C)nc3C(F)(F)F)c1)CCN(c1ccc(F)cc1OCC1CC1)C2=O` [Example 253, 2-(2-(Cyclopropylmethoxy)-4-fluorophenyl)-7-((2-methyl-1H-imidazol-1-yl)methyl)-5-(1-methyl-3-(trifluoromethyl)-1H-pyrazol-4-yl)-3,4-dihydroisoquinolin-1(2H)-one], the GI50 was 2090 nM.
In the case of `CC[C@@H](c1cncc(C)c1)N1CCc2c(cc(Cn3ccnc3C)cc2-c2cn(C)nc2C(F)(F)F)C1=O` [Example 199, (S)-7-((2-Methyl-1H-imidazol-1-yl)methyl)-5-(1-methyl-3-(trifluoromethyl)-1H-pyrazol-4-yl)-2-(1-(5-methylpyridin-3-yl)propyl)-3,4-dihydroisoquinolin-1(2H)-one], the GI50 is reported as less than 50 nM.
For `COc1cc(CN2CCc3c(cc(Cn4ccnc4C)cc3-c3cn(C)nc3C(F)(F)F)C2=O)cc(OC)c1` [Example 10, 2-(3,5-Dimethoxybenzyl)-7-((2-methyl-1H-imidazol-1-yl)methyl)-5-(1-methyl-3-(trifluoromethyl)-1H-pyrazol-4-yl)-3,4-dihydroisoquinolin-1(2H)-one], the GI50 was less than 50 nM.
Work on `COc1ccnc(CN2CCc3c(cc(CNC4=NCCO4)cc3-c3cn(C)nc3C)C2=O)c1` [Example 134, 7-(((4,5-Dihydrooxazol-2-yl)amino)methyl)-5-(1,3-dimethyl-1H-pyrazol-4-yl)-2-((4-methoxypyridin-2-yl)methyl)-3,4-dihydroisoquinolin-1(2H)-one] yielded a GI50 greater than 938 nM.
For `Cc1cc(CN2CCc3c(cc(Cn4ccn(C)c4=N)cc3-c3ccc(F)cc3C)C2=O)ccc1F` [Example 31, 5-(4-Fluoro-2-methylphenyl)-2-(4-fluoro-3-methylbenzyl)-7-((2-imino-3-methyl-2,3-dihydro-1H-imidazol-1-yl)methyl)-3,4-dihydroisoquinolin-1(2H)-one], the GI50 was less than 50 nM.
In the case of `COc1cc(CN2CCc3c(OC4CCC4)cc(Cn4ccoc4=N)cc3C2=O)cc(OC)c1` [Example 92, 5-Cyclobutoxy-2-(3,5-dimethoxybenzyl)-7-((2-iminooxazol-3(2H)-yl)methyl)-3,4-dihydroisoquinolin-1(2H)-one], the GI50 is reported as greater than 938 nM.
`COc1cc(CN2CCc3c(cc(Cn4cc(C)nc4C)cc3-c3cn(C)nc3C(F)(F)F)C2=O)cc(OC)c1` [Example 17, 2-(3,5-Dimethoxybenzyl)-7-((2,4-dimethyl-1H-imidazol-1-yl)methyl)-5-(1-methyl-3-(trifluoromethyl)-1H-pyrazol-4-yl)-3,4-dihydroisoquinolin-1(2H)-one] was tested, and the GI50 was 360 nM.
`CCn1cc(-c2cc(Cn3cnn(C)c3=N)cc3c2CCN([C@@H](C)c2cc(OC)ccn2)C3=O)c(C(F)(F)F)n1` [Example 152, (S)-5-(1-ethyl-3-(trifluoromethyl)-1H-pyrazol-4-yl)-7-((5-imino-1-methyl-1,5-dihydro-4H-1,2,4-triazol-4-yl)methyl)-2-(1-(4-methoxypyridin-2-yl)ethyl)-3,4-dihydroisoquinolin-1(2H)-one] showed a GI50 of less than 50 nM.
Molecule `CCn1cc(-c2cc(Cn3ccoc3=N)cc3c2CCN(Cc2cc(OC)ccn2)C3=O)c(C(F)(F)F)n1` [Example 89, 5-(1-Ethyl-3-(trifluoromethyl)-1H-pyrazol-4-yl)-7-((2-iminooxazol-3(2H)-yl)methyl)-2-((4-methoxypyridin-2-yl)methyl)-3,4-dihydroisoquinolin-1(2H)-one] has a GI50 of less than 50 nM.
In the case of `COc1ccnc(CN2CCc3c(cc(Cn4ccn(C)c4=N)cc3C3CC3)C2=O)c1` [Example 54, 5-Cyclopropyl-7-((2-imino-3-methyl-2,3-dihydro-1H-imidazol-1-yl)methyl)-2-((4-methoxypyridin-2-yl)methyl)-3,4-dihydroisoquinolin-1(2H)-one], the GI50 is reported as 880 nM.
`COc1cc(CN2CCc3c(OCC4CC4)cc(Cn4ccn(C)c4=N)cc3C2=O)cc(OC)c1` [Example 75, 5-(Cyclopropylmethoxy)-2-(3,5-dimethoxybenzyl)-7-((2-imino-3-methyl-2,3-dihydro-1H-imidazol-1-yl)methyl)-3,4-dihydroisoquinolin-1(2H)-one] gave a GI50 greater than 938 nM.
`CCc1ccnc([C@H](C)N2CCc3c(cc(Cn4ccnc4C)cc3-c3cn(C)nc3C(F)(F)F)C2=O)c1` [Example 175, (S)-2-(1-(4-Ethylpyridin-2-yl)ethyl)-7-((2-methyl-1H-imidazol-1-yl)methyl)-5-(1-methyl-3-(trifluoromethyl)-1H-pyrazol-4-yl)-3,4-dihydroisoquinolin-1(2H)-one] gave a GI50 of less than 50 nM.
Molecule `COc1ccnc(CN2CCc3c(cc(Cn4ccsc4=N)cc3-c3cn(C)nc3C(F)(F)F)C2=O)c1` [Example 101, 7-((2-Iminothiazol-3(2H)-yl)methyl)-2-((4-methoxypyridin-2-yl)methyl)-5-(1-methyl-3-(trifluoromethyl)-1H-pyrazol-4-yl)-3,4-dihydroisoquinolin-1(2H)-one] has a GI50 of less than 50 nM.
`CCn1cc(-c2cc(Cn3ccn(C(F)F)c3=N)cc3c2CCN([C@@H](C)c2cc(OC)ccn2)C3=O)c(C(F)(F)F)n1` [Example 67, (S)-7-((3-(Difluoromethyl)-2-imino-2,3-dihydro-1H-imidazol-1-yl)methyl)-5-(1-ethyl-3-(trifluoromethyl)-1H-pyrazol-4-yl)-2-(1-(4-methoxypyridin-2-yl)ethyl)-3,4-dihydroisoquinolin-1(2H)-one] showed a GI50 of less than 50 nM.
`CCc1nccn1Cc1cc2c(c(-c3ccc(F)cc3C)c1)CCN([C@H](c1cc(C)ccn1)C1CC1)C2=O` [Example 13, (S)-2-(Cyclopropyl(4-methylpyridin-2-yl)methyl)-7-((2-ethyl-1H-imidazol-1-yl)methyl)-5-(4-fluoro-2-methylphenyl)-3,4-dihydroisoquinolin-1(2H)-one] was tested, and the GI50 was 105 nM.
Molecule `COc1ccnc([C@H](C)N2CCc3c(cc(Cn4ccnc4C)cc3-c3cccnc3C(F)(F)F)C2=O)c1` [Example 192, (S)-2-(1-(4-Methoxypyridin-2-yl)ethyl)-7-((2-methyl-1H-imidazol-1-yl)methyl)-5-(2-(trifluoromethyl)pyridin-3-yl)-3,4-dihydroisoquinolin-1(2H)-one] has a GI50 of 77 nM.
`Cc1cc(CN2CCc3c(cc(Cn4ccnc4C)cc3-c3cn(C)nc3C(F)(F)F)C2=O)on1` [Example 190, 7-((2-Methyl-1H-imidazol-1-yl)methyl)-5-(1-methyl-3-(trifluoromethyl)-1H-pyrazol-4-yl)-2-((3-methylisoxazol-5-yl)methyl)-3,4-dihydroisoquinolin-1(2H)-one] showed a GI50 of 349 nM.
`CCn1cc(-c2cc(Cn3ccoc3=N)cc3c2CCN(Cc2cc(OC)ccn2)C3=O)c(C)n1` [Example 90, 5-(1-Ethyl-3-methyl-1H-pyrazol-4-yl)-7-((2-iminooxazol-3(2H)-yl)methyl)-2-((4-methoxypyridin-2-yl)methyl)-3,4-dihydroisoquinolin-1(2H)-one] was tested, and the GI50 was 209 nM.
`COc1ccnc(CN2Cc3c(cc(Cn4ccn(C)c4=N)cc3-c3ccc(F)cc3C)C2=O)c1` [Example 138, 4-(4-Fluoro-2-methylphenyl)-6-((2-imino-3-methyl-2,3-dihydro-1H-imidazol-1-yl)methyl)-2-((4-methoxypyridin-2-yl)methyl)isoindolin-1-one] was tested, and the GI50 was 2280 nM.
